Assay results: patent US7256198B2, “Pyrimidoindolones and methods for using same” (Wyeth, priority 2004, dated 2007)
Structures can show the parent of a compound that is named as a salt.

What was measured:
recombinant caspase 3 = molecular target: T1, recombinant caspase 3 (Homo sapiens, UniProt P42574); assay: Caspase 3 Inhibition Assay (Ac-DEVD-AFC fluorogenic substrate cleavage); assay type: biochemical; conditions: pH 7.2, 23° C.; for IC50: recombinant caspase 3 0.25 nM, Ac-DEVD-AFC 25 μM; for inhibition at 50 µM: @ 50 μM compound, recombinant caspase 3, Ac-DEVD-AFC 25 μM, read-out: percent inhibition at the highest compound concentration
T1 construct: His tag (C); made in house; host or cells: E. coli
T1 sequence (P42574 29-175 limits assumed): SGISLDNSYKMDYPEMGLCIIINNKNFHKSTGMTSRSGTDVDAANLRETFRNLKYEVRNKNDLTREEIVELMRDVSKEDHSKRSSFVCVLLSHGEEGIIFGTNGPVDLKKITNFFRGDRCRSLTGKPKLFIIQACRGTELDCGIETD
T1 sequence (P42574 176-277 limits assumed): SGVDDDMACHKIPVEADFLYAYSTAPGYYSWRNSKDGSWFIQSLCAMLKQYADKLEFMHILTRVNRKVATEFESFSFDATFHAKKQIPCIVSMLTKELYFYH
Procedure: Caspase 3 was expressed intracellularly in E. coli with a c-terminal His tag. Fermentation was performed at 25° C. in a B. Braun Biotech Biostat C 10 liter bioreactor vessel. The culture was collected in IL bottles and centrifuged in Komspin KA-7.1000 rotors at approximately 8000 RCF (Relative Centrifugal Force). The cell pellets were re-suspended in 20 mM Tris pH 8.0, 500 mM NaCl, and 5 mM imidazole. The cell suspension was disrupted by passing 5 times through a microfluidizer Model 110Y (Microfluidics Corp, Newton, Mass). After centrifugation (13 kg, 30 min at 4 C), the supernatant was applied to a column of Nickle-NTA agarose. The Caspase 3 was eluted with a gradient of 5 mM to 150 mM imidazole in the above buffer. Fractions containing Caspase 3 were pooled and concentrated with a Millipore Ultrafree filtration device. The concentrated Caspase 3 solution was loaded unto a TSK gel G3000sw column (Tosoh Bioseph LLC), equilibrated with a buffer of 20 mM PIPES pH 7.2, 100 mM NaCl, 1 mM EDTA & 5 mM Cysteine. Fractions containing Caspase 3 were pooled and concentrated. Sometimes CHAPS was added to 0.1% and sucrose to 10% into the protein sample.
Caspase 3 was assayed at 23° C. (room temp) in 96-well plates using the internally quenched tetrapeptide substrate N-acetyl-aspartyl-glutamyl-valyl-aspartate-7-amino-4-trifluoromethyl coumarin (Ac-DEVD-AFC purchased from Biomol). The assays are conducted at pH 7.2 in a buffered system containing 20 mM PIPES, 100 mM NaCl, 1 mM EDTA, 0.1% CHAPS, 10% sucrose and 5 mM L-cysteine. […] A steady state rate of substrate cleavage is obtained for analysis.
The progress curves generated were fitted by computer to equation 1 to generate an IC50 value. Equation 1: y=Bmax*(1−(x^n/(K^n+x^n))), where Bmax is rate in the absence of inhibitor.

Compound	melting point	IC50 (recombinant caspase 3) [nM]	inhibition at 50 µM (recombinant caspase 3) [%]
COC[C@@H]1CCCN1S(=O)(=O)c1ccc2c(c1)C(=O)C1=NCC(C)(C)CN12	163 to 165 °C	–	–
CC1(C)CN=C2C(=O)c3cc(S(=O)(=O)N4CCC[C@H]4COc4ccccc4)ccc3N2C1	73 to 88 °C (dec.)	–	–
COC[C@H]1CCCN1S(=O)(=O)c1ccc2c(c1)C(=O)C1=NCC(C)(C)CN12	161 to 164 °C	–	–
COC[C@@H]1CCCN1S(=O)(=O)c1ccc2c(c1)C(=O)C1=NCC3(CCCC3)CN12	171.2 to 171.9 °C	–	–
COC[C@@H]1CCCN1S(=O)(=O)c1cc2c(cc1Cl)N1CCCN=C1C2=O (hydrate or solvate) [Example 5, 7-Chloro-8-{[(2S)-2-(methoxymethyl)pyrrolidin-1-yl-]sulfonyl}-3,4-dihydropyrimido[1,2-a]indol-10(2H)-one]	127 to 130 °C	–	–
Cc1ccc2c(c1)C(=O)C1=NCCCN12 (hydrate or solvate) [Example 10, 8-Methyl-3,4-dihydropyrimido[1,2-a]indol-10(2H)-one]	163 to 164 °C	–	–
COc1ccc2c(c1)C(=O)C1=NCCCN12 (hydrate or solvate) [Example 11, 8-Methoxy-3,4-dihydropyrimido[1,2-a]indol-10(2H)-one]	152 °C	–	–
COC[C@@H]1CCCN1S(=O)(=O)c1ccc2c(c1)C(=O)C1=NCCCN12 [Example 1, 8-{[(2S)-2-(Methoxymethyl)pyrrolidin-1-yl]sulfonyl}-3,4-dihydropyrimido[1,2-a]indol-10(2H)-one]	171 to 172 °C	27	–
O=C1C2=NCCCN2c2ccc(S(=O)(=O)N3CCC[C@H]3COc3ccccc3)cc21 [Example 3]	159 to 160 °C	–	–
CNS(=O)(=O)c1ccc2c(c1)C(=O)C1=NCCCN12 [Example 7, N-Methyl-10-oxo-2,3,4,10-tetrahydropyrimido[1,2-a]indole-8-sulfonamide]	170 to 183 °C (dec.)	1270	–
CC1(C)CN=C2C(=O)c3cc(S(=O)(=O)N4CCC[C@H]4CO)ccc3N2C1 [Example 8, 8-{[(2S)-2-(Hydroxymethyl)pyrrolidin-1-yl]sulfonyl}-3,3-dimethyl-3,4-dihydropyrimido[1,2-a]indol-10(2H)-one]	91 to 96 °C (dec.)	25	–
O=C1C2=NCCCN2c2ccc(Br)cc21 [Example 9, 8-Bromo-3,4-dihydropyrimido[1,2-a]indol-10(2H)-one]	166 to 168 °C (dec.)	–	72
CC1(C)CN=C2C(=O)c3cc(S(=O)(=O)N4CCCC4)ccc3N2C1 [Example 12, 3,3-Dimethyl-8-(pyrrolidin-1-ylsulfonyl)-3,4-dihydropyrimido[1,2-a]indol-10(2H)-one]	200 to 201 °C	9	–

Second part, the compound after the results:

melting point	IC50 (recombinant caspase 3) [nM]	inhibition at 50 µM (recombinant caspase 3) [%]	Compound
155 to 168 °C	–	–	O=C(Nc1ccc2c(c1)C(=O)C1=NCCCN12)c1ccccc1 (as salt: trifluoroacetic acid salt) [Example 17, N-(10-Oxo-2,3,4,10-tetrahydropyrimido[1,2-a]indol-8-yl)benzamide trifluoroacetic acid salt]
153 to 154 °C	–	–	CC1(C)CN=C2C(=O)c3cc(Cl)ccc3N2C1 (hydrate or solvate) [Example 14, 8′-Chloro-3′,3′-dimethyl-3′,4′-dihydropyrimido[1,2-a]indol-10(2H)-one]
152 to 165 °C	–	–	O=C1C2=NCCCN2c2cc(Cl)c([N+](=O)[O-])cc21 (hydrate or solvate) [Example 15, 7-Chloro-8-nitro-3,4-dihydropyrimido[1,2-a]indol-10(2H)-one]
178 to 184 °C	–	–	CC1(C)CN=C2C(=O)c3cc(C#N)ccc3N2C1 (hydrate or solvate) [Example 20, 3,3-Dimethyl-10-oxo-2,3,4,10-tetrahydropyrimido[1,2-a]indole-8-carbonitrile]
127 to 129 °C	50000	–	CC1CCN=C2C(=O)c3cc(Br)ccc3N21 (stereo not shown) [Example 13, 8-Bromo-4-methyl-3,4-dihydropyrimido[1,2-a]indol-10(2H)-one]
> 270 °C	–	–	Nc1cc2c(cc1Cl)N1CCCN=C1C2=O [Example 16, 8-Amino-7-chloro-3,4-dihydropyrimido[1,2-a]indol-10(2H)-one]
150 to 152 °C	–	26	O=C1C2=NCCCN2c2ccc(F)cc21 [Example 18, 8-Fluoro-3,4-dihydropyrimido[1,2-a]indol-10(2H)-one]
265 °C (dec.)	–	2	O=C1C2=NCCCN2c2ccc(O)cc21 [Example 19, 8-Hydroxy-3,4-dihydropyrimido[1,2-a]indol-10(2H)-one]
169.8 to 170.8 °C	16	–	CC1(C)CN=C2C(=O)c3cc(S(=O)(=O)N4CCc5ccccc54)ccc3N2C1 [Example 32, 8-(2,3-Dihydro-1H-indol-1-ylsulfonyl)-3,3-dimethyl-3,4-dihydropyrimido[1,2-a}indol-10(2H)-one]
173.4 to 175 °C	555	–	COC[C@@H]1Cc2ccccc2N1S(=O)(=O)c1ccc2c(c1)C(=O)C1=NCC(C)(C)CN12 [Example 33, 8-{[(2S)-2-(Methoxymethyl)-2,3-dihydro-1H-indol-1-yl]sulfonyl}-3,3-dimethyl-3,4-dihydropyrimido[1,2-a]indol-10(2H)-one]
–	–	29	CN1CCN(C(=O)c2ccc3c(c2)C(=O)C2=NCC(C)(C)CN23)CC1 [Example 81, 3,3-Dimethyl-8-[(4-methylpiperazin-1-yl)carbonyl]-3,4-dihydropyrimido[1,2-a]indol-10(2H)-one]
–	–	28	CC(=O)N1CCN(C(=O)c2ccc3c(c2)C(=O)C2=NCC(C)(C)CN23)CC1 [Example 82, 8-[(4-Acetylpiperazin-1-yl)carbonyl]-3,3-dimethyl-3,4-dihydropyrimido[1,2-a]indol-10(2H)-one]
162.9 to 163.6 °C	14	–	O=C1C2=NCC3(CCCC3)CN2c2ccc(S(=O)(=O)N3CCC[C@H]3CN3CCOCC3)cc21 [Example 83, 8′-{[(2S)-2-(morpholin-4-ylmethyl)pyrrolidin-1-yl]sulfonyl}spiro[cyclopentane-1,3′-pyrimido[1,2-a]indol]-10′(2′H)-one]
–	30	–	CN1CCN(C[C@@H]2CCCN2S(=O)(=O)c2ccc3c(c2)C(=O)C2=NCC4(CCCC4)CN23)CC1 [Example 84, 8′-({(2S)-2-[(4-Methylpiperazin-1-yl)methyl]pyrrolidin-1-yl}sulfonyl)spiro[cyclopentane-1,3′-pyrimido[1,2-a]indol]-10′(2′H)-one]
152.5 to 153 °C	15	–	CC1CCN2C(=N1)C(=O)c1cc(S(=O)(=O)N3CCCC3)ccc12 (stereo not shown) [Example 87]
